US7265129B2, “Anti-infective biaryl compounds” (priority 2002, dated 2007)

What was measured:
S. pneumoniae ATCC 49619 = experiment: MIC, NCCLS broth microdilution, S. pneumoniae; assay type: cell-based, Streptococcus pneumoniae
Description: (§1) It vitro biological activity data were collected for a variety of microorganisms, including Bacillus cereus (ATCC 11778), Staphylococcus aureus (ATCC 33591; ATCC 27660, a methicillin resistant strain (MRSA); ATCC 13709, a methicillin sensitive strain (MSSA)), Enterococcus faecalis (ATCC 29212), and Streptococcus pneumoniae (ATCC 49619). Additionally, antifungal activity data were collected for Candida albicans (ATCC 38247).
(§2) Compounds according to this invention were screened for their in vitro activities against selected species of bacteria and fungi. The minimal inhibition concentration (MIC) of these compounds was determined using the National Committee for Clinical Laboratory Standards (NCCLS) broth microdilution assay in microtiter plates, as set forth in: (1) the guidelines of the National Committee for Clinical Laboratory Standards (NCCLS) Document M7-A4 (NCCLS, 1997); (2) the guidelines of the National Committee for Clinical Laboratory Standards (NCCLS) Document M11-A4 (NCCLS, 1997); and (3) the guidelines and reference method of the National Committee for Clinical Laboratory Standards (NCCLS) Document M27-T (NCCLS, 1995). For antifungal assays, the method recommended in Murray, P R., 1995 Manual of Clinical Microbiology (ASM Press, Washington, D.C.), was employed.

S. aureus ATCC 27660 = experiment: MIC, NCCLS broth microdilution, S. aureus MRSA; assay type: cell-based, Staphylococcus aureus; conditions: S. aureus ATCC 27660, methicillin resistant strain (MRSA)
Description: as §1, §2

C. albicans ATCC 38247 = experiment: MIC, antifungal assay, C. albicans; assay type: cell-based, Candida albicans
Description: as §1, §2

S. aureus ATCC 13709 = experiment: MIC, NCCLS broth microdilution, S. aureus MSSA; assay type: cell-based, Staphylococcus aureus; conditions: S. aureus ATCC 13709, methicillin sensitive strain (MSSA)
Description: as §1, §2

B. cereus ATCC 11778 = experiment: MIC, NCCLS broth microdilution, B. cereus; assay type: cell-based, Bacillus cereus
Description: as §1, §2

S. aureus ATCC 33591 = experiment: MIC, NCCLS broth microdilution, S. aureus ATCC 33591; assay type: cell-based, Staphylococcus aureus
Description: as §1, §2

E. faecalis ATCC 29212 = experiment: MIC, NCCLS broth microdilution, E. faecalis; assay type: cell-based, Enterococcus faecalis
Description: as §1, §2

| Compound | Minimum Inhibitory Concentration (MIC), organism G (S. pneumoniae ATCC 49619) | Minimum Inhibitory Concentration (MIC), organism E (S. aureus ATCC 27660) | Minimum Inhibitory Concentration (MIC), organism B (C. albicans ATCC 38247) | Minimum Inhibitory Concentration (MIC), organism D (S. aureus ATCC 13709) | Minimum Inhibitory Concentration (MIC), organism A (B. cereus ATCC 11778) | Minimum Inhibitory Concentration (MIC), organism F (S. aureus ATCC 33591) | Minimum Inhibitory Concentration (MIC), organism C (E. faecalis ATCC 29212) |
| --- | --- | --- | --- | --- | --- | --- | --- |
| Cn1cc(NC(=O)c2cc(NC(=O)c3sccc3Cl)cn2CCCN2CCC(O)CC2)cc1-c1nc2ccccc2[nH]1 [Compound A-53] | +++ (MIC ≦ 4 μg/mL) | +++ (MIC ≦ 4 μg/mL) | + (12 ≦ MIC ≦ 32 μg/mL) | +++ (MIC ≦ 4 μg/mL) | +++ (MIC ≦ 4 μg/mL) | +++ (MIC ≦ 4 μg/mL) | ++ (4 < MIC < 12 μg/mL) |
| Cn1cc(NC(=O)c2cc3ccccc3cn2)cc1C(=O)Nc1cc(-c2nc3ccc(NC(=O)CCN4CCOCC4)cc3[nH]2)n(C)c1 [Compound A-11] | +++ (MIC ≦ 4 μg/mL) | +++ (MIC ≦ 4 μg/mL) | >32 mg/L | +++ (MIC ≦ 4 μg/mL) | +++ (MIC ≦ 4 μg/mL) | +++ (MIC ≦ 4 μg/mL) | +++ (MIC ≦ 4 μg/mL) |
| CN(C)CCCn1cc(NC(=O)c2cc3ccccc3cn2)cc1C(=O)Nc1cc(-c2nc3ncccc3[nH]2)n(C)c1 [Compound A-12] | +++ (MIC ≦ 4 μg/mL) | +++ (MIC ≦ 4 μg/mL) | >32 mg/L | +++ (MIC ≦ 4 μg/mL) | +++ (MIC ≦ 4 μg/mL) | +++ (MIC ≦ 4 μg/mL) | +++ (MIC ≦ 4 μg/mL) |
| Cn1cc(NC(=O)c2cc3ccccc3cn2)cc1C(=O)Nc1cc(-c2nc3ccc(OCCN4CCOCC4)cc3[nH]2)n(C)c1 [Compound A-10] | +++ (MIC ≦ 4 μg/mL) | +++ (MIC ≦ 4 μg/mL) | >32 mg/L | +++ (MIC ≦ 4 μg/mL) | +++ (MIC ≦ 4 μg/mL) | +++ (MIC ≦ 4 μg/mL) | +++ (MIC ≦ 4 μg/mL) |
| Cn1cc(NC(=O)c2cc(NC(=O)c3ccc(Cl)cc3F)cn2CCCN2CCSCC2)cc1-c1nc2ccccc2[nH]1 [Compound A-33] | +++ (MIC ≦ 4 μg/mL) | +++ (MIC ≦ 4 μg/mL) | >32 mg/L | +++ (MIC ≦ 4 μg/mL) | +++ (MIC ≦ 4 μg/mL) | +++ (MIC ≦ 4 μg/mL) | +++ (MIC ≦ 4 μg/mL) |
| Cn1cc(NC(=O)c2cc(NC(=O)c3sc4ccccc4c3Cl)cn2CCC[n+]2ccccc2)cc1-c1nc2ccccc2[nH]1 [Compound A-27] | + (12 ≦ MIC ≦ 32 μg/mL) | ++ (4 < MIC < 12 μg/mL) | + (12 ≦ MIC ≦ 32 μg/mL) | ++ (4 < MIC < 12 μg/mL) | + (12 ≦ MIC ≦ 32 μg/mL) | ++ (4 < MIC < 12 μg/mL) | + (12 ≦ MIC ≦ 32 μg/mL) |
| Cn1cc(NC(=O)c2cc(NC(=O)c3sc4ccccc4c3Cl)cn2CCCN2CCOCC2)cc1-c1nc2ccccc2[nH]1 [Compound A-26] | +++ (MIC ≦ 4 μg/mL) | +++ (MIC ≦ 4 μg/mL) | >32 mg/L | +++ (MIC ≦ 4 μg/mL) | +++ (MIC ≦ 4 μg/mL) | +++ (MIC ≦ 4 μg/mL) | +++ (MIC ≦ 4 μg/mL) |
| Cn1cc(NC(=O)c2cc(NC(=O)c3ccc(Cl)cc3F)cn2CCCN2CCOCC2)cc1-c1nc2ccccc2[nH]1 [Compound A-37] | +++ (MIC ≦ 4 μg/mL) | +++ (MIC ≦ 4 μg/mL) | >32 mg/L | +++ (MIC ≦ 4 μg/mL) | +++ (MIC ≦ 4 μg/mL) | +++ (MIC ≦ 4 μg/mL) | +++ (MIC ≦ 4 μg/mL) |
| Cn1cc(NC(=O)c2cc(NC(=O)c3ccc(Cl)cc3F)cn2CCCN(CCO)CCO)cc1-c1nc2ccccc2[nH]1 [Compound A-36] | +++ (MIC ≦ 4 μg/mL) | +++ (MIC ≦ 4 μg/mL) | + (12 ≦ MIC ≦ 32 μg/mL) | ++ (4 < MIC < 12 μg/mL) | ++ (4 < MIC < 12 μg/mL) | +++ (MIC ≦ 4 μg/mL) | +++ (MIC ≦ 4 μg/mL) |
| CN(C)CCCn1cc(NC(=O)c2sc3ccccc3c2Cl)cc1C(=O)Nc1cc(-c2nc3ncccc3[nH]2)n(C)c1 [Compound A-28] | +++ (MIC ≦ 4 μg/mL) | +++ (MIC ≦ 4 μg/mL) | >32 mg/L | +++ (MIC ≦ 4 μg/mL) | +++ (MIC ≦ 4 μg/mL) | +++ (MIC ≦ 4 μg/mL) | +++ (MIC ≦ 4 μg/mL) |
| CN(C)CCCn1cc(NC(=O)c2ccc(F)cc2F)cc1C(=O)Nc1cc(-c2nc3ncncc3[nH]2)n(C)c1 [Compound A-19] | +++ (MIC ≦ 4 μg/mL) | + (12 ≦ MIC ≦ 32 μg/mL) | >32 mg/L | + (12 ≦ MIC ≦ 32 μg/mL) | + (12 ≦ MIC ≦ 32 μg/mL) | + (12 ≦ MIC ≦ 32 μg/mL) | ++ (4 < MIC < 12 μg/mL) |
| CN(C)CCCn1cc(NC(=O)c2ccc(Cl)cc2F)cc1C(=O)Nc1cc(-c2nc3cncnc3[nH]2)n(C)c1 [Compound A-46] | +++ (MIC ≦ 4 μg/mL) | +++ (MIC ≦ 4 μg/mL) | >32 mg/L | +++ (MIC ≦ 4 μg/mL) | +++ (MIC ≦ 4 μg/mL) | +++ (MIC ≦ 4 μg/mL) | +++ (MIC ≦ 4 μg/mL) |
| CN(C)CCCn1cc(NC(=O)c2ccc(F)cc2F)cc1C(=O)Nc1cc(-c2nc3ccncc3[nH]2)n(C)c1 [Compound A-18] | +++ (MIC ≦ 4 μg/mL) | +++ (MIC ≦ 4 μg/mL) | >32 mg/L | + (12 ≦ MIC ≦ 32 μg/mL) | + (12 ≦ MIC ≦ 32 μg/mL) | +++ (MIC ≦ 4 μg/mL) | +++ (MIC ≦ 4 μg/mL) |
| Cn1cc(NC(=O)c2sccc2Cl)cc1C(=O)Nc1cc(-c2nc3ccccc3[nH]2)n(C)c1 [Compound A-47] | +++ (MIC ≦ 4 μg/mL) | +++ (MIC ≦ 4 μg/mL) | + (12 ≦ MIC ≦ 32 μg/mL) | +++ (MIC ≦ 4 μg/mL) | +++ (MIC ≦ 4 μg/mL) | +++ (MIC ≦ 4 μg/mL) | +++ (MIC ≦ 4 μg/mL) |
| Cn1cc(NC(=O)c2cc(NC(=O)c3ccc(Cl)cc3F)cn2CCCN2CCCCC2)cc1-c1nc2ccccc2[nH]1 [Compound A-32] | +++ (MIC ≦ 4 μg/mL) | +++ (MIC ≦ 4 μg/mL) | + (12 ≦ MIC ≦ 32 μg/mL) | +++ (MIC ≦ 4 μg/mL) | +++ (MIC ≦ 4 μg/mL) | +++ (MIC ≦ 4 μg/mL) | +++ (MIC ≦ 4 μg/mL) |
| CN(C)CCCn1cc(NC(=O)c2sc3ccccc3c2Cl)cc1C(=O)Nc1cc(-c2nc3ccncc3[nH]2)n(C)c1 [Compound A-29] | +++ (MIC ≦ 4 μg/mL) | +++ (MIC ≦ 4 μg/mL) | ++ (4 < MIC < 12 μg/mL) | +++ (MIC ≦ 4 μg/mL) | +++ (MIC ≦ 4 μg/mL) | +++ (MIC ≦ 4 μg/mL) | +++ (MIC ≦ 4 μg/mL) |
